Numbers after ± are expanded uncertainties.
Conditions: Liquid, Pulse Transmission

O [water]
Conditions	speed of sound [m/s]
318.1 K, 349600 kPa	2061 ± 3.1
318.1 K, 449800 kPa	2181.8 ± 3.3
318.11 K, 150100 kPa	1787.1 ± 2.5
318.11 K, 160100 kPa	1802.4 ± 2.5
318.11 K, 250600 kPa	1930.2 ± 2.8
318.12 K, 50400 kPa	1623.1 ± 1.9
318.12 K, 299900 kPa	1996.4 ± 2.9
318.12 K, 599100 kPa	2350.3 ± 3.7
318.12 K, 599600 kPa	2346.3 ± 3.7
318.12 K, 641800 kPa	2388.1 ± 3.8
318.13 K, 250400 kPa	1930.2 ± 2.8
318.13 K, 399600 kPa	2121.7 ± 3.2
318.14 K, 111200 kPa	1725.7 ± 2.4
318.14 K, 449700 kPa	2182.1 ± 3.3
318.14 K, 701800 kPa	2454.2 ± 3.9
318.15 K, 250000 kPa	1930.6 ± 2.8
318.15 K, 651000 kPa	2405.8 ± 3.8
318.16 K, 100 kPa	1530.9 ± 2
318.16 K, 401300 kPa	2123.6 ± 3.2
318.16 K, 549200 kPa	2297.1 ± 3.6
318.16 K, 559300 kPa	2305.4 ± 3.6
318.17 K, 50000 kPa	1622.5 ± 1.9
318.17 K, 499100 kPa	2239.1 ± 3.5
318.17 K, 499800 kPa	2240.9 ± 3.5
318.17 K, 549400 kPa	2295.5 ± 3.6
318.18 K, 450600 kPa	2183.6 ± 3.3
318.18 K, 702400 kPa	2453.8 ± 3.9
318.19 K, 200200 kPa	1861.8 ± 2.7
318.19 K, 499900 kPa	2239.9 ± 3.5
318.19 K, 651200 kPa	2401.2 ± 3.8
318.19 K, 701700 kPa	2454.7 ± 3.9
318.21 K, 99700 kPa	1706.9 ± 2.3
318.21 K, 602100 kPa	2348.1 ± 3.7
318.22 K, 150400 kPa	1788.9 ± 2.5
318.26 K, 49100 kPa	1621.2 ± 1.9
327.92 K, 641400 kPa	2396.1 ± 3.8
327.96 K, 560500 kPa	2312.8 ± 3.6
327.97 K, 701700 kPa	2451.4 ± 4
328.07 K, 550700 kPa	2301.2 ± 3.7
328.08 K, 109200 kPa	1735.6 ± 2.4
328.08 K, 350700 kPa	2075.4 ± 3.1
328.08 K, 499600 kPa	2246.7 ± 3.7
328.1 K, 150000 kPa	1799.2 ± 2.5
328.12 K, 100100 kPa	1720.7 ± 2.3
328.13 K, 200200 kPa	1875.4 ± 2.6
328.14 K, 50900 kPa	1636.9 ± 2.2
328.14 K, 300800 kPa	2013.9 ± 3.2
328.14 K, 450900 kPa	2192 ± 4.3
328.15 K, 300000 kPa	2015.6 ± 3.2
328.16 K, 159900 kPa	1816 ± 2.6
328.16 K, 351700 kPa	2077.1 ± 3.1
328.16 K, 399700 kPa	2133 ± 3.7
328.16 K, 499400 kPa	2246.5 ± 3.7
328.16 K, 601200 kPa	2355.9 ± 3.7
328.16 K, 601900 kPa	2353.3 ± 3.7
328.16 K, 700100 kPa	2453.2 ± 4
328.17 K, 50600 kPa	1636.4 ± 2.3
328.17 K, 200900 kPa	1876.4 ± 2.6
328.18 K, 250700 kPa	1946.5 ± 2.8
328.19 K, 100 kPa	1541.1 ± 2.2
328.19 K, 250700 kPa	1947.4 ± 2.9
328.21 K, 449800 kPa	2189.2 ± 4.3
328.21 K, 652700 kPa	2406.9 ± 3.8
328.22 K, 400100 kPa	2137.3 ± 3.6
328.27 K, 100 kPa	1542.1 ± 2.1
328.49 K, 99800 kPa	1720.6 ± 2.4
328.66 K, 650700 kPa	2404.5 ± 3.8
328.69 K, 300000 kPa	2012.1 ± 3.4
328.72 K, 200100 kPa	1874.3 ± 2.7
328.72 K, 400500 kPa	2138.4 ± 3.2
328.72 K, 551000 kPa	2304.7 ± 3.7
328.73 K, 50900 kPa	1637.5 ± 2
328.74 K, 449200 kPa	2194.3 ± 3.8
328.76 K, 100 kPa	1543.9 ± 2.1
328.76 K, 601300 kPa	2354.9 ± 3.7
328.77 K, 350900 kPa	2076.6 ± 3.1
328.77 K, 700400 kPa	2453.8 ± 4
328.83 K, 150100 kPa	1799.9 ± 2.4
328.9 K, 250100 kPa	1944.4 ± 2.9
328.92 K, 499400 kPa	2250.4 ± 3.6
337.66 K, 150000 kPa	1810.9 ± 2.3
337.69 K, 350500 kPa	2086.1 ± 2.7
337.69 K, 399100 kPa	2142.9 ± 2.8
337.75 K, 200500 kPa	1886 ± 2.3
337.8 K, 501100 kPa	2260 ± 3
337.85 K, 300700 kPa	2024 ± 2.6
337.87 K, 50100 kPa	1643.6 ± 2
337.95 K, 100500 kPa	1731.6 ± 2.1
338.02 K, 100 kPa	1547.4 ± 1.8
338.04 K, 601100 kPa	2360.1 ± 3.2
338.07 K, 650600 kPa	2410.2 ± 3.3
338.12 K, 451000 kPa	2203.4 ± 2.9
338.15 K, 250300 kPa	1956.7 ± 2.5
338.22 K, 549600 kPa	2309.8 ± 3.1
338.22 K, 700800 kPa	2455.7 ± 3.4
349.03 K, 601700 kPa	2366 ± 3.2
349.12 K, 500600 kPa	2267.1 ± 3
349.18 K, 49900 kPa	1647.8 ± 2
349.19 K, 100 kPa	1549 ± 1.8
349.22 K, 150700 kPa	1818.4 ± 2.3
349.22 K, 300400 kPa	2029.7 ± 2.6
349.27 K, 549200 kPa	2313.8 ± 3.1
349.28 K, 400700 kPa	2153 ± 2.9
349.3 K, 250900 kPa	1965 ± 2.5
349.32 K, 349800 kPa	2091.6 ± 2.7
349.35 K, 450800 kPa	2209.4 ± 3
349.41 K, 100400 kPa	1737.3 ± 2.1
349.59 K, 651400 kPa	2412.5 ± 3.3
349.68 K, 200700 kPa	1892.8 ± 2.4
349.72 K, 704500 kPa	2445.1 ± 3.4
